Biological target: T1, human GlyT1c transporter (Homo sapiens, UniProt P48067)
T1 construct: expressed in transfected cells; host or cells: CHO cells (recombinant; line hGlyT1c_5_CHO is named for the uptake assay)
T1 sequence (P48067 1-706): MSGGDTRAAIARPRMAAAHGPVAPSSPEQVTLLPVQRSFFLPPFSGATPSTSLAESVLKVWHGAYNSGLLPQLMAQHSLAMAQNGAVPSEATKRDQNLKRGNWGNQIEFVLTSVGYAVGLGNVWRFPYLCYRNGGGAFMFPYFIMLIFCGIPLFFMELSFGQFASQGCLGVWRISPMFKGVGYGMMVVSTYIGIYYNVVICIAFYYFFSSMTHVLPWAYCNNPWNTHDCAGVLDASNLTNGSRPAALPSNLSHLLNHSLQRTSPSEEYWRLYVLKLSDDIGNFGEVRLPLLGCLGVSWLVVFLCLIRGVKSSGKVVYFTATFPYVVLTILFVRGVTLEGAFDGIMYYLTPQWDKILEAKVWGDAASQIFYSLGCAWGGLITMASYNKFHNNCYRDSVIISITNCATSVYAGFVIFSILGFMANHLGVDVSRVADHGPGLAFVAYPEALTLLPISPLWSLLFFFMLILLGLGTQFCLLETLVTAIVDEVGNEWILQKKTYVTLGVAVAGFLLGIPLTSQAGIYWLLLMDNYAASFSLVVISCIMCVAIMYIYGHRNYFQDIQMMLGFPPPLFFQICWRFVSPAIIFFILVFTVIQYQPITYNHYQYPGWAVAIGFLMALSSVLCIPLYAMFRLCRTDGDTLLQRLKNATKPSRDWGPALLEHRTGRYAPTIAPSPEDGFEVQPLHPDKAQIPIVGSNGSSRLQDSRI
Assay: Radioligand binding assay using recombinant CHO cell membranes expressing human GlyT1
Conditions: radioligand binding to human GlyT1c transporter-expressing membranes
Description: 2. Radioligand binding assays using recombinant CHO cell membranes expressing human GlyT1: […]

Ki [µM]	Compound
≤ 1	Cn1cnc(S(=O)(=O)N2C[C@H](NCc3sccc3Cl)[C@@H](c3ccccc3)C2)c1 [Example 553, (3R,4S)-N-[(3-chlorothiophen-2-yl)methyl]-1-[(1-methyl-1H-imidazol-4-yl)sulfonyl]-4-phenylpyrrolidin-3-amine]
≤ 10	Cn1cnc(S(=O)(=O)N2C[C@H](NCc3cccc4ccnn34)[C@@H](c3ccccc3)C2)c1 [Example 555, (3R,4S)-1-[(1-methyl-1H-imidazol-4-yl)sulfonyl]-4-phenyl-N-(pyrazolo[1,5-a]pyridin-7-ylmethyl)pyrrolidin-3-amine]
≤ 0.1	Cn1cnc(S(=O)(=O)N2C[C@H](NCc3cc4cc(F)ccc4s3)[C@@H](c3ccccc3)C2)c1 [Example 568, (3R,4S)-N-[(5-fluoro-1-benzothiophen-2-yl)methyl]-1-[(1-methyl-1H-imidazol-4-yl)sulfonyl]-4-phenylpyrrolidin-3-amine]
≤ 1	Cn1cnc(S(=O)(=O)N2C[C@H](NCc3cc(Cl)ccc3OC(F)F)[C@@H](c3ccccc3)C2)c1 [Example 569, (3R,4S)-N-[5-chloro-2-(difluoromethoxy)benzyl]-1-[(1-methyl-1H-imidazol-4-yl)sulfonyl]-4-phenylpyrrolidin-3-amine]
≤ 10	Cn1cnc(S(=O)(=O)N2C[C@H](NCc3cccnc3-c3ccc(F)cc3)[C@@H](c3ccccc3)C2)c1 [Example 571, (3R,4S)-N-{[2-(4-fluorophenyl)pyridin-3-yl]methyl}-1-[(1-methyl-1H-imidazol-4-yl)sulfonyl]-4-phenylpyrrolidin-3-amine]
≤ 1	Cc1ccc(-c2ncc(CN[C@H]3CN(S(=O)(=O)c4cn(C)cn4)C[C@@H]3c3ccccc3)s2)cc1 [Example 572, (3R,4S)-1-[(1-methyl-1H-imidazol-4-yl)sulfonyl]-N-{[2-(4-methylphenyl)-1,3-thiazol-5-yl]methyl}-4-phenylpyrrolidin-3-amine]
≤ 10	Cc1nc(N[C@H]2CN(S(=O)(=O)c3cn(C)cn3)C[C@@H]2c2ccccc2)nn1C [Example 575, 1,5-dimethyl-N-{(3R,4S)-1-[(1-methyl-1H-imidazol-4-yl)sulfonyl]-4-phenylpyrrolidin-3-yl}-1H-1,2,4-triazol-3-amine]
≤ 10	CCOCCCNC(=O)[C@@H]1CN(S(=O)(=O)c2cn(C)cn2)C[C@H]1c1ccc(F)cc1 [Example 578, (3S,4R)-N-(3-ethoxypropyl)-4-(4-fluorophenyl)-1-[(1-methyl-1H-imidazol-4-yl)sulfonyl]pyrrolidine-3-carboxamide]
≤ 10	COCCNC(=O)[C@@H]1CN(S(=O)(=O)c2cn(C)cn2)C[C@H]1c1ccc(F)cc1 [Example 579, (3S,4R)-4-(4-fluorophenyl)-N-(2-methoxyethyl)-1-[(1-methyl-1H-imidazol-4-yl)sulfonyl]pyrrolidine-3-carboxamide]
≤ 10	COCCCNC(=O)[C@H]1CN(S(=O)(=O)c2cn(C)cn2)C[C@@H]1c1ccc(F)cc1 [Example 583, (3R,4S)-4-(4-fluorophenyl)-N-(3-methoxypropyl)-1-[(1-methyl-1H-imidazol-4-yl)sulfonyl]pyrrolidine-3-carboxamide]
≤ 10	CCOCCNC(=O)[C@@H]1CN(S(=O)(=O)c2cn(C)cn2)C[C@H]1c1ccc(F)cc1 [Example 584, (3S,4R)-N-(2-ethoxyethyl)-4-(4-fluorophenyl)-1-[(1-methyl-1H-imidazol-4-yl)sulfonyl]pyrrolidine-3-carboxamide]
≤ 0.1	Cn1cnc(S(=O)(=O)N2C[C@H](Nc3ccc(Cl)c(OC(F)(F)F)c3)[C@@H](c3ccc(F)cc3)C2)c1 [Example 585, (3R,4S)-N-[4-chloro-3-(trifluoromethoxy)phenyl]-4-(4-fluorophenyl)-1-[(1-methyl-1H-imidazol-4-yl)sulfonyl]pyrrolidin-3-amine]

Second part, the compound before the results:

Compound	Ki [µM]
Cn1cnc(S(=O)(=O)N2C[C@H](NCC3CCC(F)(F)CC3)[C@@H](c3ccccc3)C2)c1 [Example 554, (3R,4S)-N-[(4,4-difluorocyclohexyl)methyl]-1-[(1-methyl-1H-imidazol-4-yl)sulfonyl]-4-phenylpyrrolidin-3-amine]	≤ 1
CC(C)c1csc(CN[C@H]2CN(S(=O)(=O)c3cn(C)cn3)C[C@@H]2c2ccccc2)n1 [Example 556, (3R,4S)-1-[(1-methyl-1H-imidazol-4-yl)sulfonyl]-4-phenyl-N-{[4-(propan-2-yl)-1,3-thiazol-2-yl]methyl}pyrrolidin-3-amine]	≤ 10
Cn1cnc(S(=O)(=O)N2C[C@H](NCc3ccc(C4CCCCO4)s3)[C@@H](c3ccccc3)C2)c1 (stereo partly drawn) [Example 558, (3R,4S)-1-[(1-methyl-1H-imidazol-4-yl)sulfonyl]-4-phenyl-N-{[5-(tetrahydro-2H-pyran-2-yl)thiophen-2-yl]methyl}pyrrolidin-3-amine]	≤ 10
CCC(C)C(C)CN[C@H]1CN(S(=O)(=O)c2cn(C)cn2)C[C@@H]1c1ccccc1 (stereo partly drawn) [Example 561, (3R,4S)-N-(2,3-dimethylpentyl)-1-[(1-methyl-1H-imidazol-4-yl)sulfonyl]-4-phenylpyrrolidin-3-amine]	≤ 1
Cn1cnc(S(=O)(=O)N2C[C@H](NCC3CC3c3ccccc3)[C@@H](c3ccccc3)C2)c1 (stereo partly drawn) [Example 564, (3R,4S)-1-[(1-methyl-1H-imidazol-4-yl)sulfonyl]-4-phenyl-N-[(2-phenylcyclopropyl)methyl]pyrrolidin-3-amine]	≤ 1
Cn1cnc(S(=O)(=O)N2C[C@H](NCc3scnc3Cl)[C@@H](c3ccccc3)C2)c1 [Example 565, (3R,4S)-N-[(4-chloro-1,3-thiazol-5-yl)methyl]-1-[(1-methyl-1H-imidazol-4-yl)sulfonyl]-4-phenylpyrrolidin-3-amine]	≤ 10
CC(CN[C@H]1CN(S(=O)(=O)c2cn(C)cn2)C[C@@H]1c1ccccc1)C(F)(F)F (stereo partly drawn) [Example 566, (3R,4S)-1-[(1-methyl-1H-imidazol-4-yl)sulfonyl]-4-phenyl-N-(3,3,3-trifluoro-2-methylpropyl)pyrrolidin-3-amine]	≤ 10
Cn1cnc(S(=O)(=O)N2C[C@H](NCc3ccnc(Cl)c3F)[C@@H](c3ccccc3)C2)c1 [Example 567, (3R,4S)-N-[(2-chloro-3-fluoropyridin-4-yl)methyl]-1-[(1-methyl-1H-imidazol-4-yl)sulfonyl]-4-phenylpyrrolidin-3-amine]	≤ 1
Cn1cnc(S(=O)(=O)N2C[C@H](NCc3cc(Cl)sc3Cl)[C@@H](c3ccccc3)C2)c1 [Example 570, (3R,4S)-N-[(2,5-dichlorothiophen-3-yl)methyl]-1-[(1-methyl-1H-imidazol-4-yl)sulfonyl]-4-phenylpyrrolidin-3-amine]	≤ 0.01
CCCNC(=O)[C@@H]1CN(S(=O)(=O)c2cn(C)cn2)C[C@H]1c1ccc(F)cc1 [Example 580, (3S,4R)-4-(4-fluorophenyl)-1-[(1-methyl-1H-imidazol-4-yl)sulfonyl]-N-propylpyrrolidine-3-carboxamide]	≤ 1
COCC(C)NC(=O)[C@@H]1CN(S(=O)(=O)c2cn(C)cn2)C[C@H]1c1ccc(F)cc1 (stereo partly drawn) [Example 582, (3S,4R)-4-(4-fluorophenyl)-N-[1-methoxypropan-2-yl]-1-[(1-methyl-1H-imidazol-4-yl)sulfonyl]pyrrolidine-3-carboxamide]	≤ 10

— patent EP2970215B1, “PYRROLIDINE DERIVATIVES, PHARMACEUTICAL COMPOSITIONS CONTAINING THEM, AND THEIR USE IN THERAPY” (AbbVie Deutschland GmbH & Co. KG, priority 2013, dated 2014)
